Measurements published in patent US5214034A, “Catechol derivatives, and preventive and remedial preparations for regressive disorders in the central nervous system containing the same” (priority 1986, dated 1993).

How the values were obtained:
[1] = system: production and secretion of NGF in brain astroglial cells; assay: Promoting activity for the production and secretion of NGF in brain astroglial cells of mouse (ELISA); settings: 24 h
Experimental: The experiment was performed by inducing the astroglial cells from mouse forebrain to culture system according to the procedures of S. Furukawa et al. which is described in Biochem. Biophys. Res. Commun., 136, 57-63 (1986).
That is, forebrains of 8-day old mice were dissected out and cut into small pieces. […] Cells and cell clamps were recovered by centrifugation at 200 xg for 5 minutes. They were cultured in Dulbecco modified Eagle's medium (a product of Gibco Co. hereinafter abbreviated as DMEM) containing 10% of fetal calf serum, […] of penicillin, and 50 μg/ml of streptomycin, for 10 to 14 days with medium changes every 3 days. After completing confluency, the cells were dissociated by trypsin treatment and recultured in new culture flasks. This procedure was repeated further twice and more. […] The cells will hereinafter be referred to as astroglial cells.
Astroglial cells were innoculated in 24-well plates having a well surface area of 2.1 cm^2 (a product of Falcon Co.) at a cell density of about 3×10^4 cells/well and cultured for 3 days in DMEM . medium supplemented with 10% of fetal calf serum. After completing confluency about 10^7 cells/well), the medium was changed to DMEM medium (0.5 ml/well) supplemented with 0.5% of bovine serum albumin ((fraction V) and cultured for 3 days. The culture was further continued with medium changes every 3 days. After cells were practically synchronized in the quiscent stage, the medium was changed to 0.5 ml of the medium supplemented with 0.5% of bovine serum albumin and containing a prescribed concentration of test sample as illustrated in Tables. […] Data are expressed as fold increase in NGF content over that in the absence of the test sample. […] Data are presented as means ±SE of four determinations.

[2] = system: rats injected with kainic acid at basal forebrain / sham-operated rats; assay: Retention of passive avoidance learning: prevention of retention deficits; type: in vivo, rat (male Sprague-Dawley); settings: Table 8, i.p. 5 mg/kg on days 1, 4, 7
Experimental: Effects of the derivative on the behavioral parameters of rats injected with kainic acid at basal forebrain were characterized with regard to both prevention against deficits in retention of passive avoidance learning and promotion of recovery from damaged state by repeated learning.
Male Sprague-Dawley rats (9-10 weeks of age, 200-250 g of weight) were anesthetized with Nembutal (50 mg/kg, i.p.) and placed in a stereotaxic apparatus. Bilateral lesions of the ventral globus pallidus were made by direct stereotaxic application (0.7 mm posterior to bregma, 2.7 mm lateral to the midline, and 7.0 mm ventral to the brain surface) of 0.25 μg of kainic acid in 1 μl of PBS (pH 7.4) to prepare disordered models. Controls were sham-operated rats injected with PBS in place of kainic acid solution.
Passive avoidance procedures were performed by using a two chambered step-through passive avoidance apparatus with a guillotine door. A 3 mA scrambled shock was delivered to the dark floor grids for 3 seconds as a punishment. Habituation trial was conducted prior to the acquisition trial. Each rats were placed in the illuminated chamber and the guillotine door was raised after 10 seconds. As soon as the rats entered into the dark chamber, the door was lowered. The rats were removed after 10 seconds and returned to their home cages. […] The acquisition trial was performed similarly to the habituation trial. In the former case, a rat was placed in the illuminated room and the door was opened after 10 seconds. The door was shut immediately after the rat entered into the dark room, a scrambled foot shock was applied, and then the animal was removed. The latency to enter the dark chamber after opening the door was recorded for 300 seconds in the retention of passive avoidance. The latency exceeding 300 seconds was calculated as 300 seconds.
The preventive effects on deficits in retention were estimated by using 60 rats. Thirty rats were injected with kainic acid and other 30 rats were sham-operated with PBS.
Each groups of animals were equally divided into three groups which were received intraperitoneally 5 mg/kg of the derivative (A) (R=2H, R1 =H, R2 =n-propyl, that is, 4-n-propylcatechol), derivative A (R=--CO--, R1 =H, R2 =n-propyl) and saline respectively as a saline solution on one, four and seven days after the operation.
Table 8 illustrates the results obtained by conducting the acquisition trial 10 days after the operation and the retention test after 24 hours.

## CCCc1ccc(O)c(O)c1 [R = Two H, R1 = H, R2 = n-Propyl, 4-n-propylcatechol]
[1]; read-out: Ratio of NGF increase, Table 3, 0.10 mM, 24 hours, mean ± SE of four determinations
  fold induction at 100 µM: 68.4 ± 3.24
[1]; read-out: Ratio of NGF increase, Table 3, 0.25 mM, 24 hours, mean ± SE of four determinations
  fold induction at 250 µM: 100 ± 11.2
[2]; rats operated with kainic acid
  Animals with more than 150 sec of latency: 3 in 10 animals
[2]; rats operated with kainic acid, *P < 0.01 vs control
  Mean latency: 114 ± 44 s
[2]; sham-operated rats
  Animals with more than 150 sec of latency: 10 in 10 animals
  Mean latency: 286 ± 9 s
